Activity calls are given as the source filed them. No cut-off for these calls is given here.
Assays:
MUGMel2 [1] = assay: Induction of apoptosis in human MUGMel2 cells assessed as effect on BAD mRNA expression at IC50 concentration after 6 to 24 hrs by RT-qPCR analysis; format: functional, cell-based
SBcl2 [2] = assay: Cytotoxicity against human SBcl2 cells harboring NRAS Q61I mutant assessed as reduction in cell viability after 48 hrs by EZ4U reagent based spectrophotometric method; format: functional; settings: SBcl2, 48 h
SBcl2 [3] = assay: Induction of apoptosis in human SBcl2 cells treated with scrambled si-RNA assessed as up regulation of NOXA protein expression at IC50 concentration after 24 hrs by Western blot analysis; format: functional, cell-based
WM793 [4] = assay: Induction of apoptosis in human WM793 cells assessed as effect on BAX mRNA expression at IC50 concentration after 6 to 24 hrs by RT-qPCR analysis; format: functional, cell-based
MUGMel1 [5] = assay: Induction of apoptosis in human MUGMel1 cells assessed as viable cells at IC50 concentration after 6 hrs by Annexin V/SYTOX Green based flow cytometric analysis (reference value: 96.01%); format: functional
SBcl2 [6] = assay: Induction of apoptosis in human SBcl2 cells assessed as effect on BAX mRNA expression at IC50 concentration after 6 to 24 hrs by RT-qPCR analysis; format: functional, cell-based
[7] = Toxicity in NU(NCr)-Foxn1 mouse xenografted with SBcl2 assessed as weight loss at 2 ug/g administered for three consecutive days with 1 day interval for four cycle; settings: in vivo
MUGMel1 [8] = assay: Induction of apoptosis in human MUGMel1 cells assessed as effect on BAD mRNA expression at IC50 concentration after 6 to 24 hrs by RT-qPCR analysis; format: functional, cell-based
MUGMel2 [9] = assay: Induction of apoptosis in human MUGMel2 cells assessed as late apoptotic cells at IC50 concentration after 24 hrs by Annexin V/SYTOX Green based flow cytometric analysis (reference value: 9.64%); format: functional
MUGMel2 [10] = assay: Induction of apoptosis in human MUGMel2 cells assessed as effect on BAX mRNA expression at IC50 concentration after 6 to 24 hrs by RT-qPCR analysis; format: functional, cell-based
MUGMel1 [11] = assay: Induction of apoptosis in human MUGMel1 cells assessed as up regulation of PUMA at IC50 concentration after 6 to 24 hrs by RT-qPCR analysis; format: functional, cell-based
SBcl2 [12] = assay: Induction of apoptosis in human SBcl2 cells assessed as effect on BAD protein expression at IC50 concentration after 24 hrs by Western blot analysis; format: functional, cell-based
SBcl2 [13] = assay: Cytotoxicity against human SBcl2 cells harboring NRAS Q61I mutant assessed as reduction in cell viability after 24 hrs by EZ4U reagent based spectrophotometric method; format: functional; settings: SBcl2, 24 h
SBcl2 [14] = assay: Induction of apoptosis in human SBcl2 cells treated with scrambled si-RNA assessed as caspase -activity at IC50 concentration after 24 hrs by Western blot analysis; format: functional, cell-based
WM793 [15] = assay: Induction of apoptosis in human WM793 cells assessed as late apoptotic cells at IC50 concentration after 24 hrs by Annexin V/SYTOX Green based flow cytometric analysis (reference value: 0.66%); format: functional
WM793 [16] = assay: Induction of apoptosis in human WM793 cells assessed as effect on BAD protein expression at IC50 concentration after 24 hrs by Western blot analysis; format: functional, cell-based
MUGMel1 [17] = assay: Induction of apoptosis in human MUGMel1 cells assessed as effect on BAX mRNA expression at IC50 concentration after 6 to 24 hrs by RT-qPCR analysis; format: functional, cell-based
MUGMel2 [18] = assay: Induction of apoptosis in human MUGMel2 cells assessed as early apoptotic cells at IC50 concentration after 6 hrs by Annexin V/SYTOX Green based flow cytometric analysis (reference value: 2.89%); format: functional
WM164 [19] = assay: Antitumour activity against human WM164 cells xenografted in NU(NCr)-Foxn1 mouse assessed as increase in necrotic cells at 1 to 4 ug/g administered for three consecutive days with 1 day interval for four cycle by hematoxylin and eosin staining based microscopic analysis; format: functional
MUGMel1 [20] = assay: Cytotoxicity against human MUGMel1 cells assessed as reduction in cell viability after 72 hrs by EZ4U reagent based spectrophotometric method; format: functional; settings: MUGMel1, 72 h
WM793 [21] = assay: Cytotoxicity against human WM793 cells harboring BRAF V600E mutant assessed as reduction in cell viability after 48 hrs by EZ4U reagent based spectrophotometric method; format: functional; settings: WM793, 48 h
WM793 [22] = assay: Induction of apoptosis in human WM793 cells assessed as late apoptotic cells at IC50 concentration after 6 hrs by Annexin V/SYTOX Green based flow cytometric analysis (reference value: 0.71%); format: functional
MUGMel2 [23] = assay: Induction of apoptosis in human MUGMel2 cells assessed as necrotic cells at IC50 concentration after 6 hrs by Annexin V/SYTOX Green based flow cytometric analysis (reference value: 0.3%); format: functional
MUGMel1 [24] = assay: Induction of apoptosis in human MUGMel1 cells assessed as late apoptotic cells at IC50 concentration after 6 hrs by Annexin V/SYTOX Green based flow cytometric analysis (reference value: 1.04%); format: functional
SBcl2 [25] = assay: Induction of apoptosis in human SBcl2 cells assessed as late apoptotic cells at IC50 concentration after 24 hrs by Annexin V/SYTOX Green based flow cytometric analysis (reference value: 22.96%); format: functional
WM164 [26] = assay: Induction of apoptosis in human WM164 cells assessed as up regulation of NOXA protein expression at IC50 concentration after 24 hrs by Western blot analysis; format: functional, cell-based
WM793 [27] = assay: Cytotoxicity against human WM793 cells harboring BRAF V600E mutant assessed as reduction in cell viability after 72 hrs by EZ4U reagent based spectrophotometric method; format: functional; settings: WM793, 72 h
WM164 [28] = assay: Induction of apoptosis in human WM164 cells assessed as up regulation of NOXA at IC50 concentration after 6 to 24 hrs by RT-qPCR analysis; format: functional, cell-based
SBcl2 [29] = assay: Induction of apoptosis in human SBcl2 cells assessed as up regulation of NOXA at IC50 concentration after 6 to 24 hrs by RT-qPCR analysis; format: functional, cell-based
SBcl2 [30] = assay: Induction of apoptosis in human SBcl2 cells assessed as necrotic cells at IC50 concentration after 24 hrs by Annexin V/SYTOX Green based flow cytometric analysis (reference value: 0.21%); format: functional
WM793 [31] = assay: Induction of apoptosis in human WM793 cells assessed as viable cells at IC50 concentration after 24 hrs by Annexin V/SYTOX Green based flow cytometric analysis (reference value: 96.52%); format: functional
SBcl2 [32] = assay: Antitumour activity against human SBcl2 cells xenografted in NU(NCr)-Foxn1 mouse assessed as decrease in tumour size at 2 ug/g administered for three consecutive days with 1 day interval for four cycle; format: functional, cell-based
WM164 [33] = assay: Induction of apoptosis in human WM164 cells assessed as up regulation of PUMA at IC50 concentration after 6 to 24 hrs by RT-qPCR analysis; format: functional, cell-based
MUGMel1 [34] = assay: Induction of apoptosis in human MUGMel1 cells assessed as effect on PUMA protein expression at IC50 concentration after 24 hrs by Western blot analysis; format: functional, cell-based
MUGMel1 [35] = assay: Induction of apoptosis in human MUGMel1 cells assessed as increase in caspase -3 activity at IC50 concentration after 24 hrs in presence of caspase -inhibitor by Alexa Fluor 647 antibody based flow cytometric analysis; format: functional, cell-based

## CC(C)=CC[C@@H](OC(=O)C=C(C)C)C1=CC(=O)c2c(O)ccc(O)c2C1=O [DIMETHYLACRYLSHIKONIN]
MUGMel2 [1]
  Activity: inactive
SBcl2 [2]
  IC50: 1100 nM
SBcl2 [3]
  Activity: Active
WM793 [4]
  Activity: inactive
MUGMel1 [5]
  Activity: 94.02%
SBcl2 [6]
  Activity: inactive
[7]
  Activity: Non-Toxic
MUGMel1 [8]
  Activity: inactive
MUGMel2 [9]
  Activity: 43.89%
MUGMel2 [10]
  Activity: inactive
MUGMel1 [11]
  Activity: Active
SBcl2 [12]
  Activity: inactive
SBcl2 [13]
  IC50: 1900 nM
SBcl2 [14]
  Activity: inactive
WM793 [15]
  Activity: 2.78%
WM793 [16]
  Activity: inactive
MUGMel1 [17]
  Activity: inactive
MUGMel2 [18]
  Activity: 10.56%
WM164 [19]
  Activity: 60%
MUGMel1 [20]
  IC50: 1000 nM
WM793 [21]
  IC50: 800 nM
WM793 [22]
  Activity: 5.72%
MUGMel2 [23]
  Activity: 0.39%
MUGMel1 [24]
  Activity: 2.36%
SBcl2 [25]
  Activity: 77.12%
WM164 [26]
  Activity: Active
WM793 [27]
  IC50: 700 nM
WM164 [28]
  Activity: Active
SBcl2 [29]
  Activity: Active
SBcl2 [30]
  Activity: 0%
WM793 [31]
  Activity: 83.29%
SBcl2 [32]
  Activity: inactive
WM164 [33]
  Activity: Active
MUGMel1 [34]
  Activity: inactive
MUGMel1 [35]
  Activity: inactive

Source: ChEMBL document CHEMBL4602659, “β,β-Dimethylacrylshikonin Induces Apoptosis in Melanoma Cell Lines by NOXA Upregulation” (J Nat Prod, 2020)
